The species named for series [1] is Rattus norvegicus. Kind of series: Compound was evaluated for the inhibition of glutamate-stimulated calcium influx (GSCI); (N=1). The format is functional.
Series [2] concerns the target Glutamate NMDA receptor. Kind of series: Evaluated for their affinity at the PCP site for displacement of [3H]TCP in rat brain homogenates. In kind it is tissue-based. For orientation: Displacement assays read how much labelled ligand stays bound in the presence of the test substance.
In series [3] the test system is Mus musculus. Kind of series: Compound was evaluated for in vivo activity assessed by prevention of NMDA-induced lethality in mice (N= 10 animals). In kind it is functional.
Series [4] in a line: Partition coefficient determined using standard shake flask method at pH 7.4. In kind it is physicochemical. Particulars: octanol/water.
The target in series [5] is Glutamate NMDA receptor (Rattus norvegicus) (UniProt P35439+Q00959+Q00960+Q00961+Q62645+Q8VHN2+Q9R1M7). The series can be described thus: (§1) Percent inhibition at the PCP site for displacement of [3H]TCP in rat brain homogenates at […]. In kind it is tissue-based.
For series [6], the species on record is Rattus norvegicus. The series can be described thus: Compound was evaluated for the inhibition of glutamate-stimulated calcium influx (GSCI). In kind it is functional.
The target in series [7] is Glutamate NMDA receptor. The series is described as §1. The format is tissue-based.

In general, pIC50 refers to the negative decadic logarithm of the IC50, by convention in mol/L. In general, ED50 refers to the dose that gives a 50% effect, or the effect in half of the subjects. The term logD denotes the decadic logarithm of the distribution of all forms, ionised or not, between an organic phase and buffer at a given pH. Higher therefore signals a more lipophilic compound. In general, inhibition refers to the change of the read-out against control, counted positive when it falls. Lower therefore signals a response near the control.

pIC50: −log10 of the molar value.

On to `CCNC12CCCCC1Oc1ccccc12` (centres undefined), for which the figures for the pIC50 in series [1] and in series [2] were 5.74 and 6.85, respectively. Besides, the ED50 in series [3] amounted to 1.5 mg/kg.

With `CNC12CCCCC1Cc1ccsc12` (centres undefined), the pIC50 in series [2] was 7.18. The same compound had a 50% effective dose (ED50) in series [3] of 1.1 mg/kg.

As to `CNC12CC=CCC1c1ccccc1C2` (centres undefined), in series [4], the logD turned out to be 0.04. The inhibition in series [5] is 0%.

As to `CNC12CCC(C)CC1Cc1ccccc12` (centres undefined), the pIC50 in series [2] was 7.02.

In turn, `CNC12CCCCC1Cc1cc(OC)ccc12` (centres undefined) registered a log distribution coefficient (logD) in series [4] of 0.21. The inhibition in series [5] came to 11%.

Take `CNC12CCCCCC1Cc1ccccc12` (centres undefined): the pIC50 was 5.92 in series [1] and 6.95 in series [2]. The logD in series [4] is 0.66.

`CNCC12CCCCC1c1ccccc1C2` (centres undefined) showed an inhibition in series [5] of 0%.

In the case of `CC1CCCC2Cc3ccccc3C12N` (centres undefined), in series [2], the pIC50 is 6.80.

In the case of `C[C@]12N[C@H](Cc3ccccc31)c1ccccc12` [DIZOCILPINE], the pIC50 in series [6] was 7.27. Moreover, the logD in series [4] was determined as 2.1. The same compound had a 50% effective dose (ED50) in series [3] of 0.22 mg/kg.

Consider `CN[C@@]12CC[C@@H](CN)C[C@@H]1Cc1ccccc12`, for which the values for the pIC50 in series [1] and in series [2] were 3.12 and 8.74, respectively. This compound also gave a logD in series [4] of -1.42.

For `N[C@]12CCCC[C@H]1Cc1ccccc12`, the pIC50 was 7.87 in series [2] and 6.29 in series [6]. In series [3], this compound yielded an ED50 of 0.61 mg/kg.

For `CN[C@@]12CCCC[C@@H]1Cc1ccccc12`, the results for the pIC50 in series [2] and in series [6] were 6.97 and 5.59, respectively. The log distribution coefficient (logD) in series [4] came to 0.43. For the same compound, the ED50 in series [3] is 10 mg/kg.

For the compound `CN[C@]12CCCC[C@H]1Cc1ccccc12`, the pIC50 in series [2] is 8.00; in series [6], 6.92. In series [4], this compound displayed a logD of 0.33. Besides, the ED50 in series [3] is 0.1 mg/kg.

In the case of `CNC12CCCCC1Cc1ccc(O)cc12` (centres undefined), the pIC50 in series [1] was 6.85; in series [2], 7.78. The ED50 in series [3] was found to be 0.99 mg/kg.

`CNC12CCCC1Cc1ccccc12` (centres undefined): the negative logarithm of the IC50 (pIC50) in series [2] is 6.46.

On to `CNC12c3ccccc3CC1CCCC2C` (centres undefined), for which the pIC50 in series [1] is 6.41; in series [2], 7.10. In addition, the ED50 in series [3] came to 0.8 mg/kg.

With `CC[C@]1(c2ccccc2)OC[C@H]([C@@H]2CCCCN2)O1` [ETOXADROL], the pIC50 in series [2] was 6.97.

Take `CN[C@@]12CCCC[C@@H]1Cc1ccccc12.CN[C@]12CCCC[C@H]1Cc1ccccc12`: the negative-log IC50 (pIC50) in series [2] is 7.52; in series [6] it was 7.00. This compound showed a logD in series [4] of 0.54. Besides, the 50% effect level in series [3] (ED50) was put at a dose of 0.58 mg/kg.

Regarding `CCN[C@]12CCCC[C@H]1Cc1ccccc12`, the negative-log IC50 (pIC50) in series [1] is 7.21; in series [2] it was 7.26. In series [3], the 50% effect level (ED50) was put at a dose of 0.2 mg/kg.

With `c1ccc(CNC23CCCC2Cc2ccccc23)cc1` (centres undefined), in series [5], the inhibition came to 4%.

The compound `c1ccc(CNC23CCCCC2Cc2ccsc23)cc1` (centres undefined) displayed an inhibition in series [5] of 10%.

The compound `CNC[C@@H]1CC[C@@]2(NC)c3ccccc3C[C@H]2C1` returned a logD in series [4] of -2.65. Also, in series [5], the inhibition was 0%.

In the case of `c1ccc(C2(N3CCCCC3)CCCCC2)cc1` [PHENCYCLIDINE], the pIC50 is 7.44 in series [2] and 6.70 in series [6]. In addition, the logD in series [4] stood at 3.63. For the same compound, the ED50 in series [3] turned out to be 0.55 mg/kg.

For `CCNC12CCCCC1Cc1c(C)cccc12` (centres undefined), in series [2], the pIC50 is 6.49.

Consider `C=C1c2ccccc2C2(NC)CCCCC12` (centres undefined), for which the pIC50 in series [2] is 6.28. In series [4], this compound had a logD of 0.76.

The compound `C=C1c2ccccc2C2(N)CCCCC12` (centres undefined) had an inhibition in series [5] of 4%.

For the compound `CNC12CCCCC1Cc1ccc(OC)cc12` (centres undefined), the pIC50 in series [1] is 6.80; in series [2], 7.66. This compound gave a logD in series [4] of 0.65. Also, the ED50 in series [3] was determined as 0.51 mg/kg.

Compound `NCC12CCCCC1c1ccccc1C2` (centres undefined) had an inhibition in series [5] of 1%.

In series [4], `NC12CCCC1Cc1ccccc12` (centres undefined) had a logD of -0.28. This compound also had a pIC50 in series [7] of 8.30.

Take `CNC12CCCCC1c1ccccc1C2` (centres undefined): the logD in series [4] amounted to 0.62. The same compound gave an inhibition in series [5] of 0%.

Consider `CNC12CCCCC1Sc1ccccc12` (centres undefined), for which the pIC50 was 6.68 in series [1] and 7.95 in series [2]. The same compound came in with an ED50 in series [3] of 0.41 mg/kg.

In series [2], `NC12CCC(CO)CC1Cc1ccccc12` (centres undefined) gave a pIC50 of 6.60. The logD in series [4] turned out to be 0.86.

`NC12CCCCC1c1ccccc1C2` (centres undefined) displayed a logD in series [4] of 0.3. The same compound came in with an inhibition in series [5] of 0%.

`CNC12CCC(CO)CC1Cc1ccccc12` (centres undefined) had a pIC50 in series [2] of 5.41. The same compound showed a logD in series [4] of 0.17.

Take `NC12CCCCCC1Cc1ccccc12` (centres undefined): the pIC50 in series [2] was 6.52.

In series [5], `c1ccc(CNC23CCCCCC2Cc2ccccc23)cc1` (centres undefined) had an inhibition of 6%.
